The source made the active and inactive calls.
Assays:
[1] = target: T1, Cytochrome P450 2C9 (Homo sapiens, UniProt P11712)
[2] = test system: Escherichia coli; assay: microbe, parasite or virus in culture
[3] = target: Glyceraldehyde-3-phosphate dehydrogenase (Homo sapiens, UniProt P04406)
[4] = target: Nonstructural protein 1 (Influenza A virus, UniProt Q194T2); type: functional, Influenza A virus (A/California/07/2009(H1N1))
[5] = test system: Vero; assay: cells; type: functional, cell-based; details: Chlorocebus sabaeus
[6] = target: Cytochrome P450 3A4 (Homo sapiens, UniProt P08684);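 further: CYP3A4 tested as one member of a cytochrome P450 panel screen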
Chain of Cytochrome P450 3A4 (P08684 whole entry): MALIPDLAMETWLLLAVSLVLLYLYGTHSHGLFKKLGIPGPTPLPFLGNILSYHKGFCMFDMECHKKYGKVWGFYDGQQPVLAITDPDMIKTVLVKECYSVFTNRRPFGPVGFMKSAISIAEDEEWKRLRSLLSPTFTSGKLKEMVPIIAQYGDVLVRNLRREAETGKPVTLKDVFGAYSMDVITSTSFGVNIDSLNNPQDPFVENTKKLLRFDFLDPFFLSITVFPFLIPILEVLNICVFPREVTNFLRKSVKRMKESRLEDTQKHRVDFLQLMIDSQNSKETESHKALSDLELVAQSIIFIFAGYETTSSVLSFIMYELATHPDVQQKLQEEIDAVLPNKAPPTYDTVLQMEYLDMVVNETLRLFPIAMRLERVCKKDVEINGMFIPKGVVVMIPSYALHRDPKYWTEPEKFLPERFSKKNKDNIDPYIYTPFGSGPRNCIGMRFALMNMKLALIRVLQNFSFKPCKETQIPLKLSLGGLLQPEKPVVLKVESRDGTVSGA

[7] = target: T2, Alkaline phosphatase, tissue-nonspecific isozyme (Homo sapiens, UniProt P05186); assay: potency against alkaline phosphatase TNAP – biochemical, luminescent, dose response, SAR follow-up (AID 1056)
T2 sequence (P05186 whole entry): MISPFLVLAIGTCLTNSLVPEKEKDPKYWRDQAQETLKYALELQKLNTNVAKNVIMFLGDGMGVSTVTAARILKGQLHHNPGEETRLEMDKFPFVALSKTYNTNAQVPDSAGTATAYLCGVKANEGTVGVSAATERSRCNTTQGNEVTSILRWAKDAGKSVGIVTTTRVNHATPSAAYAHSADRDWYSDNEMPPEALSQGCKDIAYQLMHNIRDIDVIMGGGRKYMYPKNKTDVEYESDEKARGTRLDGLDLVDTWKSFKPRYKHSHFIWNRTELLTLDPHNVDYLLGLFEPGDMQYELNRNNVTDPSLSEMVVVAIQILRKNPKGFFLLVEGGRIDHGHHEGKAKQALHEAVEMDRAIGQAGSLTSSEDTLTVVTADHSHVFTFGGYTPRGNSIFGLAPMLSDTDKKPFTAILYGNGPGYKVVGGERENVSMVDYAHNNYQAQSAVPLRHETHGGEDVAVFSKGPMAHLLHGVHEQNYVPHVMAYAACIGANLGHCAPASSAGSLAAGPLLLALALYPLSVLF

[8] = Luminescence Cell-Based Dose Response HTS to Identify Inhibitors of 5'UTR Stem-Loop Driven Prion Protein mRNA Translation in H4 Neuroglioblastoma Cells. [Related pubchem assays: 1827 (Project Summary), 1813 (Primary HTS)]; type: functional
[9] = DRD fibroblast viability loss – cell-based, non-viral oncogenic, luminescence, dose response (AID 1934); type: functional; details: Homo sapiens
[10] = test system: BJ; assay: BJ-TERT fibroblast viability loss – cell-based, RAS-independent, luminescence, dose response (AID 1933); type: functional; details: Homo sapiens
[11] = luciferase reporter signal suppression in cells – H4 neuroglioma cells, luminescence, dose response (AID 1990); type: functional, cell-based
[12] = test system: BJ; assay: BJ-TERT-LT-ST fibroblast viability loss – cell-based, RAS-independent, luminescence, dose response (AID 1935); type: functional; details: Homo sapiens;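 further: BJ fibroblasts immortalized with TERT plus LT and ST oncogenes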
[13] = test system: BJ; assay: cells; type: functional, cell-based; details: Homo sapiens
[14] = alpha-synuclein stem-loop luciferase translation blockers – H4 neuroglioma cells, luminescence, confirmation (AID 1988); type: functional, cell-based
[15] = target: Cytochrome P450 2D6 (Homo sapiens, UniProt P10635);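 further: CYP2D6 member of a cytochrome P450 panel assay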
Chain of Cytochrome P450 2D6 (P10635 whole entry): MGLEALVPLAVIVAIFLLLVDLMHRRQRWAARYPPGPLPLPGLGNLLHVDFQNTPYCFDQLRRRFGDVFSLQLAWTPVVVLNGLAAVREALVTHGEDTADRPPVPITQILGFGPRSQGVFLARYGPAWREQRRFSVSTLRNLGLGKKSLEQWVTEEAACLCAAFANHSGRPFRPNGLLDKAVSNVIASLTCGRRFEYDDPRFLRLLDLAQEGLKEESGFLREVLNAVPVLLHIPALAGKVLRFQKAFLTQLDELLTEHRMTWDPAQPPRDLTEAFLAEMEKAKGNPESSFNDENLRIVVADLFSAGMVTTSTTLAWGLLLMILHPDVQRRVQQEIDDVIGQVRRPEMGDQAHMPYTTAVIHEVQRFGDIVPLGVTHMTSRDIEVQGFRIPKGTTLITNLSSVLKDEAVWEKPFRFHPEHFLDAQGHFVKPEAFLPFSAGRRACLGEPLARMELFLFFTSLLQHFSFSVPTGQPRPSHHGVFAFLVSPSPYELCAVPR

[16] = Trypanosoma cruzi growth suppression in host cells – NIH3T3 host cells, beta-gal luminescence, confirmation (AID 2044); type: functional, cell-based;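 further: intracellular parasites grown in NIH/3T3 mouse fibroblasts as host cells; luminescent beta-galactosidase reporter signal from transgenic T. cruzi replicating inside host cells; inhibitors lower the luminescence signal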
[17] = test system: INS1; assay: INS-1E survival protection against cytokine death – cell-based, luminescence, retest, dose response (AID 449756); type: functional; details: Rattus norvegicus;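 further: cell death triggered by IL-1 beta plus TNF-alpha plus IFN-gamma mixture; protective hits raise ATP signal compared with cytokine alone wells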
[18] = NIH3T3 cell viability loss – ATP luminescence, mouse fibroblasts, counter-screen, dose response (AID 2010); type: functional, cell-based;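 further: cells exposed to compound for about 90 hours before reading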
[19] = test system: Vero; assay: cells; type: functional; details: Chlorocebus sabaeus
[20] = target: T1, Cytochrome P450 2C9; remark: listed apart in the source
[21] = target: Cytochrome P450 2C19 (Homo sapiens, UniProt P33261); assay: Cytochrome panel assay with activity outcomes. Panel member name: p450-cyp2c19 Compounds with AC50 equal or less than 10 uM are considered active; type: functional; details: read-out: AC50
Chain of Cytochrome P450 2C19 (P33261 whole entry): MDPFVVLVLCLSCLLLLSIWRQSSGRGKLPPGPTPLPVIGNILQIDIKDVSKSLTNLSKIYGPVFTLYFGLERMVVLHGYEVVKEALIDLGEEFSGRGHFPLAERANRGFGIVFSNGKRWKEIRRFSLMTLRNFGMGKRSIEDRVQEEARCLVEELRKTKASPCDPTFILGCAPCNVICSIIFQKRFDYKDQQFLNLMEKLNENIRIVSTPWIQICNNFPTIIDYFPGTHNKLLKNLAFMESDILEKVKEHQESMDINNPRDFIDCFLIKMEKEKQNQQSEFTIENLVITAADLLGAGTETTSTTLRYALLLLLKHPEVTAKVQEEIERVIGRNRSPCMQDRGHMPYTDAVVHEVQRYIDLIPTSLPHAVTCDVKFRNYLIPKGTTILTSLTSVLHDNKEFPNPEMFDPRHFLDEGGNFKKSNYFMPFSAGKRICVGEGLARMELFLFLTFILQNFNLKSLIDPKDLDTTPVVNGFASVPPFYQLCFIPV

[22] = Luminescence Cell-Based Dose Response HTS to Identify Activators of Luciferase Translation or Activity in H4 […] Cells. [Related pubchem assays: 1829 (Project Summary), 1814 (Primary HTS)]; type: functional
[23] = target: T3, Corticotropin-releasing factor receptor 2/Corticotropin-releasing factor-binding protein (Homo sapiens, UniProt P24387+Q13324); assay: activators of CRF receptor 2 with binding protein – uHTS hits, confirmation (AID 602473); type: functional; details: read-out: EC50_Mean
T3 sequence (Q13324 whole entry): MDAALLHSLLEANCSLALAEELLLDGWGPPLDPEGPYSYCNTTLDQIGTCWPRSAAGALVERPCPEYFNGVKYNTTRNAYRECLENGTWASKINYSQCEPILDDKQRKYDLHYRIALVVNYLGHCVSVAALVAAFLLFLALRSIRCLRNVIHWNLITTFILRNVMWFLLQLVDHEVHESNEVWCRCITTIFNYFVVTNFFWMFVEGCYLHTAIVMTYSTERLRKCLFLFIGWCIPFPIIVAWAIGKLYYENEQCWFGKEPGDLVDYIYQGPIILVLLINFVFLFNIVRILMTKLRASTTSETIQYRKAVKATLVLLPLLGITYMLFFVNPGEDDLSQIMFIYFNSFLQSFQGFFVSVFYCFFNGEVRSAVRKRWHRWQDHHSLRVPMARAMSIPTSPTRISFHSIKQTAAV
T3 sequence (P24387 whole entry): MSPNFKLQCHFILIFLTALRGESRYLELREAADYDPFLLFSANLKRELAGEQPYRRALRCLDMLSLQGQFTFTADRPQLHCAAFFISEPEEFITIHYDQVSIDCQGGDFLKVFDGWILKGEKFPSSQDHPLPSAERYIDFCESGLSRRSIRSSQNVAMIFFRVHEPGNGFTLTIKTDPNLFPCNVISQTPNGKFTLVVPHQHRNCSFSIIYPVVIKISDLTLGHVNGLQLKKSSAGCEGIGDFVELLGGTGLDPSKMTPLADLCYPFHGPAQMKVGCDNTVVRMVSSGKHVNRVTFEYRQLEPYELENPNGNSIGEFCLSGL

[24] = target: T3, Corticotropin-releasing factor receptor 2/Corticotropin-releasing factor-binding protein; assay: Dose Response confirmation of uHTS hits for small molecule antagonists of the CRF-binding protein and CRF-R2 receptor complex.; type: functional; details: read-out: IC50_Mean
[25] = cells; type: functional
[26] = THP-1 cell cytotoxicity, dose response, cytotoxicity control for non-replicating M. tuberculosis project (AID 489025); type: functional
[27] = HepG2 cell cytotoxicity, dose response, cytotoxicity control for non-replicating M. tuberculosis project (AID 489018); type: functional; details: Mycobacterium tuberculosis
[28] = microbe, parasite or virus in culture; type: functional; details: Mycobacterium tuberculosis

T1 sequence (P11712 whole entry): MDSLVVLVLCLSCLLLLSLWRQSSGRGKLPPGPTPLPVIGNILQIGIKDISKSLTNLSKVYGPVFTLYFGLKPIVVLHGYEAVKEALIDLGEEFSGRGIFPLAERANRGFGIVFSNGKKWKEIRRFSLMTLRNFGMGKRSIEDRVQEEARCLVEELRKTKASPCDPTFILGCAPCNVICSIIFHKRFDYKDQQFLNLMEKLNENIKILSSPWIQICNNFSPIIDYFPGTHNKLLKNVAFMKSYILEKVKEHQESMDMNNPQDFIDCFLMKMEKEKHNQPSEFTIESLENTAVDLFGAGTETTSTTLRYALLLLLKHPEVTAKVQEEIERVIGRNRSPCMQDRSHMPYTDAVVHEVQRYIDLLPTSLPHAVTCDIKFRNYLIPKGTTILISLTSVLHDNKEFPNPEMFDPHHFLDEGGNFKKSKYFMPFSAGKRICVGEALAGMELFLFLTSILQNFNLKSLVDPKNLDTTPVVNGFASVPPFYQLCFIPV
Chain of Nonstructural protein 1 (Q194T2 whole entry): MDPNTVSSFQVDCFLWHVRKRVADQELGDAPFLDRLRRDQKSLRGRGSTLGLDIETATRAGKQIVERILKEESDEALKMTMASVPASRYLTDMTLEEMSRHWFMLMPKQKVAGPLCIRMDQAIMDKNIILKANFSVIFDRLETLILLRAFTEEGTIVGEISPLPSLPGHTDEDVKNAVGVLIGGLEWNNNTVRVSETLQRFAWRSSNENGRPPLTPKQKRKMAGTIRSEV
Chain of Glyceraldehyde-3-phosphate dehydrogenase (P04406 whole entry): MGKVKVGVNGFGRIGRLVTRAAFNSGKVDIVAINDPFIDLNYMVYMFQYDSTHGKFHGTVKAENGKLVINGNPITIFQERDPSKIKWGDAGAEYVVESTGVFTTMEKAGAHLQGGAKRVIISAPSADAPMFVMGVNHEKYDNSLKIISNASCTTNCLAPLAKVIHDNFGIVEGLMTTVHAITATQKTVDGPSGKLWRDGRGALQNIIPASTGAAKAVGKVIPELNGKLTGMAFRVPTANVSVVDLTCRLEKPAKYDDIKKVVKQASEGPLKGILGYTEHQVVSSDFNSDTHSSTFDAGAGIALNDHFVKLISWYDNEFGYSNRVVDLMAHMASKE

CCCCCCCCCCCCCCCCCC(=O)O[C@H](CC(=O)O)C[N+](C)(C)C
AC50 [1]: inconclusive

CC(=O)NC1=NN(C(C)=O)C2(S1)C(=O)N(C(C)C)c1ccc(C)cc12 (stereo unspecified)
AC50 [2]: > 150 µM (inactive)

Cc1ccc(NC2=NC(=O)/C(=C/c3ccc(O)c([N+](=O)[O-])c3)S2)cc1Cl
IC50 [3]: > 100 µM (not active)

O=[N+]([O-])c1ccc(N2CCOCC2)cc1NC(c1ccccc1)c1ccccc1
IC50 [4]: > 100 µM (active)

COCCNCC(=O)NC12CC3CC(CC(C3)C1)C2
IC50 [5]: 16.2 µM (active)

COc1cccc(NC(=O)c2cccc(C(=O)Nc3cccc(OC)c3)n2)c1
AC50 [2]: 32.4 µM (active)

NC(=O)C1CCN(c2oc(-c3ccccc3)nc2S(=O)(=O)c2ccc(Br)cc2)CC1
IC50 [4]: > 100 µM (active)

CC1CCN(C2=C(NS(=O)(=O)c3ccc(Br)cc3)C(=O)c3ccccc3C2=O)CC1
IC50 [4]: 10.8 µM (active)

O=C(O)C1CCC(=O)N(C2CC2)C1c1ccccc1 (stereo unspecified)
AC50 [6]: inconclusive

CN(C)c1ncc2nc(-c3ccc(F)cc3)c(=O)n(Cc3ccc(F)cc3)c2n1
AC50 [6]: inconclusive | AC50 [1]: inconclusive

O=S(=O)(c1ccccc1)N1CCC2(CCN(C(c3ccccc3)c3ccccc3)CC2)CC1
AC50 [6]: inconclusive

CCOC(=O)C1C(=O)C=C(c2ccc(C)cc2)CC1c1ccco1 (stereo unspecified)
AC50 [6]: inconclusive

COC(=O)c1cc(-c2ccc(C)cc2C)n[nH]1
IC50 [7]: 1.62 µM (active) | IC50 [3]: > 100 µM (not active)

Cn1c(=O)c2c(nc(NN/C=C3/C(=O)NC(=S)N(c4ccccc4)C3=O)n2C)n(C)c1=O
IC50 [4]: 20.9 µM (active)

CN1CCN(c2ccc([N+](=O)[O-])cc2C(=O)c2ccc(Br)cc2)CC1
EC50 [8]: 12.6 µM (active) | EC50 [9]: 4.11 µM (active) | EC50 [10]: 4.96 µM (active) | EC50 [11]: 11.6 µM (active) | EC50 [12]: 5.07 µM (inconclusive) | EC50 [13]: 28.9 µM (active) | EC50 [14]: 4.21 µM (active)

COc1ccccc1NC(=O)CN1CCC(C(=O)c2ccc(F)cc2)CC1
AC50 [15]: 25.1 µM (inconclusive) | AC50 [1]: inconclusive

Cc1cc(C(=O)OCC(=O)NCc2ccco2)c(C)n1-c1ccc(F)cc1
EC50 [8]: 9.52 µM (active) | EC50 [9]: 16.7 µM (active) | EC50 [10]: 9.71 µM (inconclusive) | EC50 [11]: > 120 µM (not active) | EC50 [12]: 4.61 µM (active) | EC50 [13]: 36 µM (active) | EC50 [14]: 4.93 µM (active)

CCCCc1ccc(NC(=N)Nc2nc(C)cc(C)n2)cc1
EC50 [16]: 1.71 µM (active) | AC50 [17]: 4.27 µM (active) | EC50 [18]: 9.01 µM (active) | CC50 [19]: 7.63 µM (active)

Cc1ccc(S(=O)(=O)Oc2ccc(/C=C(/NC(=O)c3ccccc3)C(=O)Nc3ccccc3)cc2)cc1
AC50 [20]: 0.316 µM (inconclusive) | AC50 [6]: inconclusive | AC50 [21]: 0.316 µM (inconclusive)

CC1C(=O)C(C)C(c2ccc(Br)cc2)NC1c1ccc(Br)cc1 (stereo unspecified)
EC50 [16]: 1.11 µM (active) | EC50 [18]: > 60 µM (not active) | CC50 [19]: > 25 µM (active)

CCOC(=O)c1cc(-c2ccc3c(c2)OCCO3)n[nH]1
IC50 [7]: 6.04 µM (active) | EC50 [22]: 0.345 µM (active) | IC50 [3]: > 100 µM (not active)

CC(=O)Nc1n[nH]c(SCc2ccc(Br)cc2)n1
IC50 [7]: > 100 µM (inactive) | IC50 [3]: > 100 µM (not active)

C=CCc1cccc2cc(C(=O)N(CC)CC)c(=O)oc12
AC50 [21]: 28.2 µM (inconclusive) | AC50 [1]: inconclusive

c1ccc(COc2nsnc2N2CCOCC2)cc1
IC50 [4]: > 100 µM (active)

COc1ccc(Br)cc1S(=O)(=O)Nc1ccc2ccccc2c1
IC50 [7]: > 10 µM (inactive) | IC50 [3]: > 10 µM (inconclusive)

CCOC(=O)c1c(NC(=O)c2c(-c3ccccc3)noc2C)sc(C)c1-c1ccccc1
IC50 [5]: < 0.05 µM (active) | EC50 [16]: 0.805 µM (active) | EC50 [18]: 12.5 µM (active)

O=C(CCCc1ccccc1)N1CCN(c2ccc([N+](=O)[O-])cc2)CC1
AC50 [6]: inconclusive | EC50 [23]: > 53 µM (inactive) | IC50 [24]: > 47.1 µM (inactive)

O=S(=O)(c1ccc(Cl)cc1)N1CCN(C(=S)Nc2ccc(F)c(Cl)c2)CC1
IC50 [5]: > 25 µM (active) | CC50 [19]: > 25 µM (active)

COc1ccc(Cc2nnc(N3C(=O)[C@H]4CC=CC[C@H]4C3=O)[nH]2)cc1
IC50 [7]: 96 µM (active) | IC50 [3]: > 100 µM (not active)

CC1=NN(C(=O)c2ccc(Br)cc2)C(O)(c2ccccc2)C1 (stereo unspecified)
IC50 [25]: 22.4 µM (active) | CC50 [26]: 22.1 µM (active) | CC50 [27]: > 20 µM (active) | CC50 [28]: > 40 µM (active)

C=CC/N=c1/scc(-c2ccccc2)n1/N=C/c1ccccn1
IC50 [5]: 0.98 µM (active)

CCCNc1nc(NCC)nc(OC)n1
AC50 [21]: 17.8 µM (inconclusive) | AC50 [1]: inconclusive

O=C1CN(S(=O)(=O)c2ccccc2C(F)(F)F)CCN1
AC50 [2]: 28.5 µM (active)

O=C(c1ccc([N+](=O)[O-])o1)N1CCc2ccccc21
CC50 [19]: > 25 µM (active)

Source: ChEMBL document CHEMBL1201862, “PubChem BioAssay data set” (2004)
